Test results reported in patent publication US8741906B2 (priority 2011, dated 2014).
Where two headings read alike, the source gives them in different places.

Columns and labels:
human CB2 receptors = target: T1, human CB2 receptors (Homo sapiens, UniProt P34972); experiment: functional cAMP assay, human CB2; assay type: cell-based
T1 construct: expressed in transfected cells; host or cells: CHO cells
Protocol: (§1) CHO cells expressing human CB1 or CB2 receptors are seeded 17-24 hours prior to the experiment 50.000 cells per well in a black 96 well plate with flat clear bottom (Corning Costar #3904) in DMEM (Invitrogen No. 31331), 1×HT supplement, with 10% fetal calf serum and incubated at 5% CO2 and 37° C. in a humidified incubator. The growth medium was exchanged with Krebs Ringer Bicarbonate buffer with 1 mM IBMX and incubated at 30° C. for 30 min. Compounds were added to a final assay volume of 100 μl and incubated for 30 min at 30° C. Using the cAMP-Nano-TRF detection kit the assay (Roche Diagnostics) was stopped by the addition of 50 μl lysis reagent (Tris, NaCl, 1.5% Triton X100, 2.5% NP40, 10% NaN3) and 50 μl detection solutions (20 μM mAb Alexa700-cAMP 1:1, and 48 μM Ruthenium-2-AHA-cAMP) and shaken for 2 h at room temperature. The time-resolved energy transfer is measured by a TRF reader (Evotec Technologies GmbH), equipped with a ND:YAG laser as excitation source. The plate is measured twice with the excitation at 355 nm and at the emission with a delay of 100 ns and a gate of 100 ns, total exposure time 10 s at 730 (bandwidth 30 nm) or 645 nm (bandwidth 75 nm), respectively. The FRET signal is calculated as follows: FRET=T730-Alexa730-P(T645-B645) with P=Ru730-B730/Ru645-B645, where T730 is the test well measured at 730 nM, T645 is the test well measured at 645 nm, B730 and B645 are the buffer controls at 730 nm and 645 nm, respectively. cAMP content is determined from the function of a standard curve spanning from 10 μM to 0.13 nM cAMP.
(§2) EC50 values were determined using Activity Base analysis (ID Business Solution, Limited). The EC50 values for a wide range of cannabinoid agonists generated from this assay were in agreement with the values published in the scientific literature.

human CB1 receptors = target: T2, human CB1 receptors (Homo sapiens, UniProt P21554); experiment: functional cAMP assay, human CB1; assay type: cell-based
T2 construct: expressed in transfected cells; host or cells: CHO cells
T2 sequence (P21554 whole entry): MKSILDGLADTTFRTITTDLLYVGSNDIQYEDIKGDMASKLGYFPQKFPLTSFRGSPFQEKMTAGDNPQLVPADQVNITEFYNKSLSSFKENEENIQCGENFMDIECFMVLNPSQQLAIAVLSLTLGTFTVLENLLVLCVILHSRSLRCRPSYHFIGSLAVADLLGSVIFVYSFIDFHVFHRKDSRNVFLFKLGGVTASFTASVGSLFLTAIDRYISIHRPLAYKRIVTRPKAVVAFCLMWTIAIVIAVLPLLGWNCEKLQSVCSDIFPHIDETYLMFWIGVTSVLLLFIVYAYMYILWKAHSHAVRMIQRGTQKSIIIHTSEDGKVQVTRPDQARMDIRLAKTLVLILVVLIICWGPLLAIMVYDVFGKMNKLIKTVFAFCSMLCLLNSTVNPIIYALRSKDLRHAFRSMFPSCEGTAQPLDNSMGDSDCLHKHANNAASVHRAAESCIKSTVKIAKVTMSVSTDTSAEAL
Protocol: as §1, §2

[1] = CHO cells expressing human CB2, cAMP, read-out: human CB2 EC50
[2] = CHO cells expressing human CB1, cAMP, read-out: human CB1 EC50

T1 sequence (P34972 whole entry): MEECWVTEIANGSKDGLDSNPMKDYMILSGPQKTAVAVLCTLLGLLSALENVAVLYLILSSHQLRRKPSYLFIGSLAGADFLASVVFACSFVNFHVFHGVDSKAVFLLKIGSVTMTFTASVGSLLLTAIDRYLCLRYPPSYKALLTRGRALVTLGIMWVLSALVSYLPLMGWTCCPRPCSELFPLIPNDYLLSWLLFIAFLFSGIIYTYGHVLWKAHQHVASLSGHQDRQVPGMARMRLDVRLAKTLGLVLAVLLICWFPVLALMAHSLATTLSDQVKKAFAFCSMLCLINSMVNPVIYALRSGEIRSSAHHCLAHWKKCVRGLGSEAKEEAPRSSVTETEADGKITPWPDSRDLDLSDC

Row | EC50 (human CB2 receptors) [nM] | SMILES | EC50 (human CB2 receptors; [1]) [nM] | EC50 (human CB1 receptors; [2]) [nM] | EC50 (human CB1 receptors) [nM]
1 | – | CC(C)(C)c1nc(N2CC(F)(F)C(F)(F)C2)c2nnn(Cc3ccccc3Cl)c2n1 [Example 43, 5-tert-Butyl-3-(2-chloro-benzyl)-7-(3,3,4,4-tetrafluoro-pyrrolidin-1-yl)-3H-[1,2,3]triazolo[4,5-d]pyrimidine] | 1.2 | 626 | –
2 | – | CC(C)(C)c1nc(N2CC(O)C2)c2nnn(Cc3ccccc3Cl)c2n1 [Example 13] | 12.3 | > 10000 | –
3 | – | Cn1nncc1Cn1nnc2c(N3CC4(COC4)C3)nc(C(C)(C)C)nc21 [Example 185, 5-tert-Butyl-3-(3-methyl-3H-[1,2,3]triazol-4-ylmethyl)-7-(2-oxa-6-aza-spiro[3.3]hept-6-yl)-3H-[1,2,3]triazolo[4,5-d]pyrimidine] | 26.8 | > 10000 | –
4 | – | Cc1nonc1Cn1nnc2c(N3CC[C@](C)(O)C3)nc(C(C)(C)C)nc21 [Example 228-a, (S)-1-(5-tert-butyl-3-((4-methyl-1,2,5-oxadiazol-3-yl)methyl)-3H-[1,2,3]triazolo[4,5-d]pyrimidin-7-yl)-3-methylpyrrolidin-3-ol] | 1.8 | > 10000 | –
5 | – | COC[C@H]1CCCN1c1nc(C(C)(C)C)nc2c1nnn2Cc1ccccc1Cl [Example 44, 5-tert-Butyl-3-(2-chloro-benzyl)-7-((R)-2-methoxymethyl-pyrrolidin-1-yl)-3H-[1,2,3]triazolo[4,5-d]pyrimidine] | 1 | > 10000 | –
6 | – | CC(C)(C)c1nc(N2CCC(F)(F)C2)c2nnn(Cc3c(C(F)(F)F)ccc(Cl)c3Cl)c2n1 [Example 123, 5-tert-Butyl-3-(2,3-dichloro-6-trifluoromethyl-benzyl)-7-(3,3-difluoro-pyrrolidin-1-yl)-3H-[1,2,3]triazolo[4,5-d]pyrimidine] | 0.8 | 306 | –
7 | – | Cc1nc(Cn2nnc3c(N4CC[C@H](O)C4)nc(C(C)(C)C)nc32)n(C)n1 [Example 161, (S)-1-[5-tert-Butyl-3-(2,5-dimethyl-2H-[1,2,4]triazol-3-ylmethyl)-3H-[1,2,3]triazolo[4,5-d]pyrimidin-7-yl]-pyrrolidin-3-ol] | 82.5 | > 10000 | –
8 | – | CC(C)(C)c1nc(N2CCC(F)(F)C2)c2nnn(C3CS(=O)(=O)C3)c2n1 [Example 125, 5-tert-Butyl-7-(3,3-difluoro-pyrrolidin-1-yl)-3-(1,1-dioxo-1λ^6-thietan-3-yl)-3H-[1,2,3]triazolo[4,5-d]pyrimidine] | 1.9 | > 10000 | –
9 | – | CC1(C)CN(c2nc(C(C)(C)C)nc3c2nnn3Cc2ccccc2Cl)CCO1 [Example 23, 5-tert-Butyl-3-(2-chloro-benzyl)-7-(2,2-dimethyl-morpholin-4-yl)-3H-[1,2,3]triazolo[4,5-d]pyrimidine] | 75.4 | > 10000 | –
10 | – | CC(C)(C)c1nc(OC2COC2)c2nnn(Cc3ccccc3Cl)c2n1 [Example 206, 5-tert-Butyl-3-(2-chloro-benzyl)-7-(oxetan-3-yloxy)-3H-[1,2,3]triazolo[4,5-d]pyrimidine] | 11.3 | > 10000 | –
11 | – | CC(C)(C)c1nc(N2CCC(F)(F)C2)c2nnn(Cc3c[nH]nc3C(F)(F)F)c2n1 [Example 135, 5-tert-Butyl-7-(3,3-difluoro-pyrrolidin-1-yl)-3-(3-trifluoromethyl-1H-pyrazol-4-ylmethyl)-3H-[1,2,3]triazolo[4,5-d]pyrimidine] | 0.4 | 1400 | –
12 | – | Cn1nccc1C1CCCN1c1nc(C(C)(C)C)nc2c1nnn2Cc1ccccc1Cl (centres unmarked) [Example 201, 5-tert-Butyl-3-(2-chloro-benzyl)-7-[2-(2-methyl-2H-pyrazol-3-yl)-pyrrolidin-1-yl]-3H-[1,2,3]triazolo[4,5-d]pyrimidine] | 65.7 | > 10000 | –
13 | – | CC(C)(C)c1nc(N2CC[C@H](O)[C@@H]2CO)c2nnn(Cc3ccccc3S(C)(=O)=O)c2n1 [Example 168, (2S,3S)-1-[5-tert-Butyl-3-(2-methanesulfonyl-benzyl)-3H-[1,2,3]triazolo[4,5-d]pyrimidin-7-yl]-2-hydroxymethyl-pyrrolidin-3-ol] | 9.4 | > 10000 | –
14 | – | CC(C)(C)c1nc(N2CCOCC2)c2nnn(Cc3ccccc3Cl)c2n1 [Example 1, 5-tert-butyl-3-(2-chlorobenzyl)-7-morpholin-4-yl-3H-[1,2,3]triazolo[4,5-d]pyrimidine] | 0.6 | 1060 | –
15 | – | C[C@@H](Oc1nc(C(C)(C)C)nc2c1nnn2Cc1ccccc1Cl)C(F)(F)F [Example 216, 5-tert-Butyl-3-(2-chloro-benzyl)-7-((R)-2,2,2-trifluoro-1-methyl-ethoxy)-3H-[1,2,3]triazolo[4,5-d]pyrimidine] | 10.4 | > 10000 | –
16 | – | C[C@@H]1CN(c2nc(C(C)(C)C)nc3c2nnn3Cc2ccccc2Cl)C[C@H](C)O1 [Example 16, 5-tert-Butyl-3-(2-chloro-benzyl)-7-((2R,6S)-2,6-dimethyl-morpholin-4-yl)-3H-[1,2,3]triazolo[4,5-d]pyrimidine] | 286 | – | > 10000
17 | – | CC(C)(C)c1nc(N2CCCC23COC3)c2nnn(Cc3ccccc3Cl)c2n1 [Example 53, 5-tert-Butyl-3-(2-chloro-benzyl)-7-(2-oxa-5-aza-spiro[3.4]oct-5-yl)-3H-[1,2,3]triazolo[4,5-d]pyrimidine] | 15 | > 10000 | –
18 | – | Cc1nonc1Cn1nnc2c(N3CC4(COC4)C3)nc(C(C)(C)C)nc21 [Example 179, 5-tert-Butyl-3-(4-methyl-furazan-3-ylmethyl)-7-(2-oxa-6-aza-spiro[3.3]hept-6-yl)-3H-[1,2,3]triazolo[4,5-d]pyrimidine] | 2 | > 10000 | –
19 | – | CC(C)(C)c1nc(N2CCC[C@@H](O)C2)c2nnn(Cc3ccccc3Cl)c2n1 [Example 34, (R)-1-[5-tert-Butyl-3-(2-chloro-benzyl)-3H-[1,2,3]triazolo[4,5-d]pyrimidin-7-yl]-piperidin-3-ol] | 27.5 | 2270 | –
20 | – | CC(Oc1nc(C(C)(C)C)nc2c1nnn2Cc1ccccc1Cl)C(F)(F)F (centres unmarked) [Example 214, 5-tert-Butyl-3-(2-chloro-benzyl)-7-(2,2,2-trifluoro-1-methyl-ethoxy)-3H-[1,2,3]triazolo[4,5-d]pyrimidine] | 9.4 | > 10000 | –
21 | – | CC(C)(C)c1nc(N2CCCO2)c2nnn(Cc3ccccc3Cl)c2n1 [Example 40, 5-tert-Butyl-3-(2-chloro-benzyl)-7-isoxazolidin-2-yl-3H-[1,2,3]triazolo[4,5-d]pyrimidine] | 11.6 | > 10000 | –
22 | 32.9 | Cn1nnnc1Cn1nnc2c(N3CC[C@@H](O)C3)nc(C(C)(C)C)nc21 [Example 219, (R)-1-(5-tert-butyl-3-((1-methyl-1H-tetrazol-5-yl)methyl)-3H-[1,2,3]triazolo[4,5-d]pyrimidin-7-yl)pyrrolidin-3-ol] | – | – | > 10000
23 | – | CC1CCCN1c1nc(C(C)(C)C)nc2c1nnn2Cc1ccccc1Cl (centres unmarked) [Example 30, 5-tert-Butyl-3-(2-chloro-benzyl)-7-(2-methyl-pyrrolidin-1-yl)-3H-[1,2,3]triazolo[4,5-d]pyrimidine] | 26.9 | > 10000 | –
24 | – | CC(C)(C)c1nc(N2CCC(F)(F)C2)c2nnn(Cc3c(F)cccc3Cl)c2n1 [Example 72, 5-tert-Butyl-3-(2-chloro-6-fluoro-benzyl)-7-(3,3-difluoro-pyrrolidin-1-yl)-3H-[1,2,3]triazolo[4,5-d]pyrimidine] | 0.1 | 41 | –
25 | – | CC1(O)CN(c2nc(C(C)(C)C)nc3c2nnn3Cc2ccccc2Cl)C1 [Example 14, 1-[5-tert-Butyl-3-(2-chloro-benzyl)-3H-[1,2,3]triazolo[4,5-d]pyrimidin-7-yl]-3-methyl-azetidin-3-ol] | 2.1 | 1230 | –
26 | – | CC(C)(C)c1nc(N2CCC(F)(F)C2)c2nnn(Cc3ccccc3Cl)c2n1 [Example 6, 5-tert-Butyl-3-(2-chloro-benzyl)-7-(3,3-difluoro-pyrrolidin-1-yl)-3H-[1,2,3]triazolo[4,5-d]pyrimidine] | 0.2 | 165 | –
27 | – | CC(C)(C)c1nc(N2CCC(F)(F)C2)c2nnn(Cc3nc(C(F)(F)F)no3)c2n1 [Example 156, 5-tert-Butyl-7-(3,3-difluoro-pyrrolidin-1-yl)-3-(3-trifluoromethyl-[1,2,4]oxadiazol-5-ylmethyl)-3H-[1,2,3]triazolo[4,5-d]pyrimidine] | 5.6 | > 10000 | –
28 | – | CC(C)(C)c1nc(N2CCC(F)(F)CC2)c2nnn(Cc3ccccc3Cl)c2n1 [Example 3, 5-tert-Butyl-3-(2-chloro-benzyl)-7-(4,4-difluoro-piperidin-1-yl)-3H-[1,2,3]triazolo[4,5-d]pyrimidine] | 1.3 | 160 | –
